According to PMC11062922 (Nature Chemical Biology, 2023):

Assays:
[1] = molecular target: T1, AAK1 (Homo sapiens, UniProt Q2M2I8); assay: Kinobeads two-dose competition binding: AAK1; settings: for CATDS: sheet CATDS matrix 2, Gene Name AAK1;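 for all read-outs here: kinobeads competition pulldown from cell lysate, compound preincubated 45 min at 4 °C, bead-bound protein measured by label-free mass spectrometry against DMSO vehicle control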
T1 construct: to maximize the representation of endogenous proteins; endogenous in cells

[2] = molecular target: T2, ACOX1 (Homo sapiens, UniProt Q15067); assay: Kinobeads two-dose competition binding: ACOX1; settings: for CATDS: sheet CATDS matrix 2, Gene Name ACOX1;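 for all read-outs here: competition of compounds with immobilized broad-spectrum kinase inhibitor beads in cell lysate at 100 and 1,000 nM, 45 min at 4 °C, bead-bound protein quantified by label-free MS versus DMSO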
T2 construct: endogenous in cells
T2 sequence (Q15067 1-660): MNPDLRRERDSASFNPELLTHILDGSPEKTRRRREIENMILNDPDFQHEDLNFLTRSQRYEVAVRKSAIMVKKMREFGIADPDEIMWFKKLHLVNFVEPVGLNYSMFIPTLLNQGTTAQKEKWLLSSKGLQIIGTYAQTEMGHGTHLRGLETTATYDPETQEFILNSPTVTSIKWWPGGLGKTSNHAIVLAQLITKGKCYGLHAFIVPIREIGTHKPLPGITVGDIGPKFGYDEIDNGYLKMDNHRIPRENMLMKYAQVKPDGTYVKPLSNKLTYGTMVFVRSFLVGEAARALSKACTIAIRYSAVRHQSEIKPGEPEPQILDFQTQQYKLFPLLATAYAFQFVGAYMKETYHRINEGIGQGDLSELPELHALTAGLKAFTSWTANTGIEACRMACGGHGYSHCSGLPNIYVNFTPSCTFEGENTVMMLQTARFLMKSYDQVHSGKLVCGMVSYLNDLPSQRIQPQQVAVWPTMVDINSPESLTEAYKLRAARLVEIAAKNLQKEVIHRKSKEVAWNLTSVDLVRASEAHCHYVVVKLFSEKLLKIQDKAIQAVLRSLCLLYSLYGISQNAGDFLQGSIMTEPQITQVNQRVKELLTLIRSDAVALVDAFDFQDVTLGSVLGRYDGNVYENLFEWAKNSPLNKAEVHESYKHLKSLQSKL

[3] = molecular target: T3, ABL2 (Homo sapiens, UniProt P42684); assay: Kinobeads two-dose competition binding: ABL2; settings: sheet CATDS matrix 2; Gene Name ABL2
T3 construct: endogenous in cells

[4] = molecular target: T4, ACAD11 (Homo sapiens, UniProt Q709F0); assay: Kinobeads two-dose competition binding: ACAD11; settings: sheet CATDS matrix 2; Gene Name ACAD11
T4 construct: endogenous in cells
T4 sequence (Q709F0 1-780): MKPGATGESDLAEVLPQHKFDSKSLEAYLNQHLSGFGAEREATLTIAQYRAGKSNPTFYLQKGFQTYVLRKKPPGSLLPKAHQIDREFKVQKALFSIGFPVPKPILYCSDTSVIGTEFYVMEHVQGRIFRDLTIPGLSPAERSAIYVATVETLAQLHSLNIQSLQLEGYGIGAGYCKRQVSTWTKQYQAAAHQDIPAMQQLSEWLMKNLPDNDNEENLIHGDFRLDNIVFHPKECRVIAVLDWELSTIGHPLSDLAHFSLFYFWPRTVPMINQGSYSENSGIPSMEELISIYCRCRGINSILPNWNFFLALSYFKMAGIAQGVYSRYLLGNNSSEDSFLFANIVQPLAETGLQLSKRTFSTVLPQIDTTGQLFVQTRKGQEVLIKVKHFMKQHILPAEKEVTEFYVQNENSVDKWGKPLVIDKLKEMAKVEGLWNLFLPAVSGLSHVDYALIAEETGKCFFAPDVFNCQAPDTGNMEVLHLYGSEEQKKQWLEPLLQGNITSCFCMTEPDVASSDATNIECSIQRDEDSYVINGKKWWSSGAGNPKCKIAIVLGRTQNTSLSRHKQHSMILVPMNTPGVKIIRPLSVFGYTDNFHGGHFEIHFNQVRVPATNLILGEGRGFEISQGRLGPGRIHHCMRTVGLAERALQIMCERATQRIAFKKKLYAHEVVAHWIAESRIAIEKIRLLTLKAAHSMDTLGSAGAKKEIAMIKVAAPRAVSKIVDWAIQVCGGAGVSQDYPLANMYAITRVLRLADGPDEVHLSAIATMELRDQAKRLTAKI

[5] = molecular target: ABL1 (Homo sapiens, UniProt P00519); assay: Kinobeads two-dose competition binding: ABL1; settings: sheet CATDS matrix 2; Gene Name ABL1
ABL1, sequence (P00519 28-1130 limits assumed): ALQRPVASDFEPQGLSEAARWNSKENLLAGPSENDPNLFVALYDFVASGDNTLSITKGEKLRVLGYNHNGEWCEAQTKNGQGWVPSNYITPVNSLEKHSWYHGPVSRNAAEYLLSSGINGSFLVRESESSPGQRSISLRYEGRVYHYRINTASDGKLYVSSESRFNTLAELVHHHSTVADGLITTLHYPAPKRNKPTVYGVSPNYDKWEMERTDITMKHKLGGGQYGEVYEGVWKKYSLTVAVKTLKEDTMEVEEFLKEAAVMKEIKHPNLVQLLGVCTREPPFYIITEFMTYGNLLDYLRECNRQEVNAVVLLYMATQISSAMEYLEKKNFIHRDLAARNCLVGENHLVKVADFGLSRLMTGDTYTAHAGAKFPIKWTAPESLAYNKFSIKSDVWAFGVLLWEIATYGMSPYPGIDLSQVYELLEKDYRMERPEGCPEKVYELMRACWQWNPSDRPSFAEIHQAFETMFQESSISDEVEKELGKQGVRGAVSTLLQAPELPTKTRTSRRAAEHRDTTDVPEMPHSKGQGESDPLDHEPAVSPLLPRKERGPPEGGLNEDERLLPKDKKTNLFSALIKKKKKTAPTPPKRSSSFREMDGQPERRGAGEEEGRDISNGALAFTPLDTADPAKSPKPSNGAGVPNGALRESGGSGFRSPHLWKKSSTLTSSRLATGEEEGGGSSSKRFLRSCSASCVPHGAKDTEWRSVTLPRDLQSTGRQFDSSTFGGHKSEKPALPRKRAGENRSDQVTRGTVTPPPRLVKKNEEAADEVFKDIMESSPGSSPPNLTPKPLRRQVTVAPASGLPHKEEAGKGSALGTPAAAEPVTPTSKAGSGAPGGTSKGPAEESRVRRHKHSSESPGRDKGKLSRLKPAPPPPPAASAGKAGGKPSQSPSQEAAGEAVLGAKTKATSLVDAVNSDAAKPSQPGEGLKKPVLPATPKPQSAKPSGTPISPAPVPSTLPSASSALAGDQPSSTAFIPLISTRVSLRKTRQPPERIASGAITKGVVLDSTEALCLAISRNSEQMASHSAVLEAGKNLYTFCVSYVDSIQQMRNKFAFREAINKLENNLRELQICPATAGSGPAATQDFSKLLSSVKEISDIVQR

T3 sequence (P42684 whole entry): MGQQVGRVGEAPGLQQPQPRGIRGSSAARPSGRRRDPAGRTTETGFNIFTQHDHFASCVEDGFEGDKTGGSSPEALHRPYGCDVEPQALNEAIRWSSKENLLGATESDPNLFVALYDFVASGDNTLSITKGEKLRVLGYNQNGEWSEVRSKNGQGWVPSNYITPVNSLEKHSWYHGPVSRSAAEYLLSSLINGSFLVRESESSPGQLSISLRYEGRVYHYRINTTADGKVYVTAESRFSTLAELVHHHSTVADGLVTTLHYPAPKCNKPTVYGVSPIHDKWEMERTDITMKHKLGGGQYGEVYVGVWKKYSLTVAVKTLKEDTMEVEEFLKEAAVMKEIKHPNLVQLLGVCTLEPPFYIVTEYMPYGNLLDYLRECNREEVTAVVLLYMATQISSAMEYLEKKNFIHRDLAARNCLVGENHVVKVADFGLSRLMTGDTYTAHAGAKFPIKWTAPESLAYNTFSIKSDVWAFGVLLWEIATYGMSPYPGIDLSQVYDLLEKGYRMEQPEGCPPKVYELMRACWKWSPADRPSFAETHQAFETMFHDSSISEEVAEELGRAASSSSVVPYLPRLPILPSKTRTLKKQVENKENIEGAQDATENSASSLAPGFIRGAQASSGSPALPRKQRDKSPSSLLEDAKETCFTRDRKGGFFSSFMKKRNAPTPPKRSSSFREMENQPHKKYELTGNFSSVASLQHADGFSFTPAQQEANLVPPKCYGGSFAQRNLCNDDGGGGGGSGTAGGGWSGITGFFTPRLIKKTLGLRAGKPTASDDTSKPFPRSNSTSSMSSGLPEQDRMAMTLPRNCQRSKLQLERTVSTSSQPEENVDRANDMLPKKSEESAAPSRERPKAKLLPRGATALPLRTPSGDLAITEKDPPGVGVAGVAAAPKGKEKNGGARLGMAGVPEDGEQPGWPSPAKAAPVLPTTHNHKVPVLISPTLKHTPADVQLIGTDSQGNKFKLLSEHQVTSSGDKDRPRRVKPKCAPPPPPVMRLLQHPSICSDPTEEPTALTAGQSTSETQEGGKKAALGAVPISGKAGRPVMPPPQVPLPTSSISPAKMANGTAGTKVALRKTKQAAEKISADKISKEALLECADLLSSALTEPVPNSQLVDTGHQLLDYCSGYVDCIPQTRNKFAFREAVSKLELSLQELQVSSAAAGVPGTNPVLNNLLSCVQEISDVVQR
T1 sequence (Q2M2I8 whole entry): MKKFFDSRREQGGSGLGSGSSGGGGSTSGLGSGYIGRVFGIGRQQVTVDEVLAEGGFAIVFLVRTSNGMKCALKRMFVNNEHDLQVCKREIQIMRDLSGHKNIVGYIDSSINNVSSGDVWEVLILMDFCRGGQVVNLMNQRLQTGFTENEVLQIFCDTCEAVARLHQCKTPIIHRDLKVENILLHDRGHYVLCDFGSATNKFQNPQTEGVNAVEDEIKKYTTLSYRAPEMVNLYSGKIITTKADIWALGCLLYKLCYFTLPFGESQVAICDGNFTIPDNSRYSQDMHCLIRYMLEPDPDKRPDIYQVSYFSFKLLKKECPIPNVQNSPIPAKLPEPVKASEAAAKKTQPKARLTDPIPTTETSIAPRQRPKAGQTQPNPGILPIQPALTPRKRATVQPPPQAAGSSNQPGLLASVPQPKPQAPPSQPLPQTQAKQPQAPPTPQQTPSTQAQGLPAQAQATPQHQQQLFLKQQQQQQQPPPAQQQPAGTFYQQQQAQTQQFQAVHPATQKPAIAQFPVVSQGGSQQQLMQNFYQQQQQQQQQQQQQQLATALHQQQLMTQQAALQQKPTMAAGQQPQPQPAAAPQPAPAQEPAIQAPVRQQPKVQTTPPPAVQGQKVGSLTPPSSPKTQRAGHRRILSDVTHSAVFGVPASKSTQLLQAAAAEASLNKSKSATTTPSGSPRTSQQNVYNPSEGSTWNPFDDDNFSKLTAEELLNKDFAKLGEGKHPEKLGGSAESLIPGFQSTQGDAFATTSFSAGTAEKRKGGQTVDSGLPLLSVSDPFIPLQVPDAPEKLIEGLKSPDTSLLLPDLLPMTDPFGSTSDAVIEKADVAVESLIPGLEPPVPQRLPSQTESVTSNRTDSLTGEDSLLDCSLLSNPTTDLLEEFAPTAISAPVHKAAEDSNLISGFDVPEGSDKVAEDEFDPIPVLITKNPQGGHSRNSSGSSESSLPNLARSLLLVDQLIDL

With COc1cc(Nc2nccc(N3CCC(NC(=O)C4COc5ccccc5O4)C3)n2)cc(OC)c1OC (stereo not drawn) [GSK1379761A] the potency estimated from few doses ([1]; sheet "Kinobeads Drugmatrix - all", unit inferred, same values below 1000 recur in sheet "nanomolar", read-out: Kinobeads Drugmatrix - all: apparent Kd, AAK1) was > 1000 nM, the CATDS [1] was 0 and the CATDS [2] was 0. For the same compound, the CATDS [3] was 0, the CATDS [4] was 0 and the CATDS [5] was 0.

Work on C[C@@H]1CCNC(=O)c2cc3ccc(C(=O)Nc4nc5ccccc5n4CCCN(C)C)cc3n21 [BI00645435] yielded a CATDS [1] of 0, a CATDS [2] of 0 and a CATDS [3] of 0. It also gave a CATDS [4] of 0 and a CATDS [5] of 0.

Oc1ccc2ncnc(Nc3ccc(OCc4ccccc4)cc3)c2c1 [GI262866A] showed a CATDS [1] of 0, a potency estimated from few doses ([2]; sheet "Kinobeads Drugmatrix -nanomolar" (only nanomolar interactions), read-out: Kinobeads Drugmatrix -nanomolar: apparent Kd, ACOX1) of 830 nM and a CATDS [2] of 0.07628. It also gave a CATDS [3] of 0, a CATDS [4] of 0 and a CATDS [5] of 0.

O=c1cc(N2CCOCC2)nc2n(Cc3cccc4ccccc34)ccn12 [GSK2333389A] was tested, and the CATDS [1] was 0, the CATDS [2] was 0 and the CATDS [3] was 0. It also gave a CATDS [4] of 0 and a CATDS [5] of 0.

For NCC1CCC(CNc2nc(NCc3ccccc3OC(F)(F)F)ncc2[N+](=O)[O-])CC1 (stereo not drawn) [BIRZ0518XX], the CATDS [1] was 0, the CATDS [2] was 0 and the CATDS [3] was 0. The CATDS [4] was 0 and the CATDS [5] was 0.

For NC[C@H](Cc1ccc(C(F)(F)F)cc1)NC(=O)c1cc(Br)c(-c2ccnc3[nH]ccc23)s1 [GSK1487252A], the CATDS [1] was 0, the CATDS [2] was 0 and the CATDS [3] was 0. The CATDS [4] was 0 and the CATDS [5] was 0.

COc1ccc(S(=O)(=O)NC2CCN(c3cc(C)nc(Nc4cccc(C#N)c4)n3)CC2)cc1 [GSK1653539A] showed a CATDS [1] of 0, a CATDS [2] of 0 and a CATDS [3] of 0. The CATDS [4] was 0 and the CATDS [5] was 0.

In the case of Cc1ccccc1Cn1ccn2c(=O)cc(N3CCOCC3)nc12 [GSK2269905A], the CATDS [1] is reported as 0, the CATDS [2] is reported as 0 and the CATDS [3] is reported as 0. The CATDS [4] was 0 and the CATDS [5] was 0.

For Cc1cccc(Cn2ccn3c(=O)cc(N4CCOCC4)nc23)c1 [GSK2297542A], the CATDS [1] was 0, the CATDS [2] was 0 and the CATDS [3] was 0. The CATDS [4] was 0 and the CATDS [5] was 0.

Work on Nc1nc(-c2ccc3c(N)n[nH]c3c2)cc(N2CCCC(NC(=O)c3ccccc3)C2)n1 (stereo not drawn) [GSK2286775B] yielded a CATDS [1] of 0.05355, a CATDS [2] of 0 and a CATDS [3] of 0. The CATDS [4] was 0 and the CATDS [5] was 0.

With O=C(Nc1ccccc1F)NC1CCN(c2ccnc(Nc3ccc(F)cc3)n2)C1 (stereo not drawn) [GSK1379722A] the CATDS [1] was 0, the CATDS [2] was 0 and the CATDS [3] was 0. It also gave a CATDS [4] of 0 and a CATDS [5] of 0.

CCCN1CCCC(c2ccc(Nc3nc(Nc4cc(F)ccc4C(N)=O)c4cc[nH]c4n3)c(OC)c2)C1 (stereo not drawn) [GSK1173862A] showed a CATDS [1] of 0, a CATDS [2] of 0 and a CATDS [3] of 0. For the same compound, the CATDS [4] was 0 and the CATDS [5] was 0.

O=c1[nH]cc(-c2ccc(N3CCOCC3)cc2)c2sc(-c3cn[nH]c3)cc12 [GSK2276055A] showed a CATDS [1] of 0, a CATDS [2] of 0 and a CATDS [3] of 0. It also gave a CATDS [4] of 0 and a CATDS [5] of 0.

Compound COc1cc2ncn(-c3cc(OCC4CCCCC4)c(C(N)=O)s3)c2cc1OC [GSK204559A] has a CATDS [1] of 0, a CATDS [2] of 0 and a CATDS [3] of 0. It also gave a CATDS [4] of 0 and a CATDS [5] of 0.

For Cc1c(Cn2ccn3c(=O)nc(N4CCOCC4)cc23)cccc1C(F)(F)F [GSK2336394A], the CATDS [1] was 0, the CATDS [2] was 0 and the CATDS [3] was 0. For the same compound, the CATDS [4] was 0 and the CATDS [5] was 0.

O=C(c1ccc(F)c(F)c1Nc1ccc(I)cc1F)N1CC(O)([C@@H]2CCCCN2)C1 [Cobimetinib, reference compound] gave a CATDS [1] of 0, a CATDS [2] of 0 and a CATDS [3] of 0. For the same compound, the CATDS [4] was 0 and the CATDS [5] was 0.

In the case of CCCc1ccc(S(=O)(=O)NC2CCN(c3ccnc(Nc4ccc(OC)cc4)n3)C2)cc1 (stereo not drawn) [GSK1379737A], the CATDS [1] is reported as 0, the CATDS [2] is reported as 0 and the CATDS [3] is reported as 0. For the same compound, the CATDS [4] was 0 and the CATDS [5] was 0.
